Measured values as given in patent US20260335323A1, “CHIMERIC MOLECULE” (UCL Business Ltd, priority 2023, published 2026).

Tests used:
[1] = biological target: T1, ULK1 (Homo sapiens, UniProt O75385); experiment: in vitro kinase assay measuring ATP consumption; assay type: biochemical; details: versus BL-918
T1 sequence (O75385 1-1050): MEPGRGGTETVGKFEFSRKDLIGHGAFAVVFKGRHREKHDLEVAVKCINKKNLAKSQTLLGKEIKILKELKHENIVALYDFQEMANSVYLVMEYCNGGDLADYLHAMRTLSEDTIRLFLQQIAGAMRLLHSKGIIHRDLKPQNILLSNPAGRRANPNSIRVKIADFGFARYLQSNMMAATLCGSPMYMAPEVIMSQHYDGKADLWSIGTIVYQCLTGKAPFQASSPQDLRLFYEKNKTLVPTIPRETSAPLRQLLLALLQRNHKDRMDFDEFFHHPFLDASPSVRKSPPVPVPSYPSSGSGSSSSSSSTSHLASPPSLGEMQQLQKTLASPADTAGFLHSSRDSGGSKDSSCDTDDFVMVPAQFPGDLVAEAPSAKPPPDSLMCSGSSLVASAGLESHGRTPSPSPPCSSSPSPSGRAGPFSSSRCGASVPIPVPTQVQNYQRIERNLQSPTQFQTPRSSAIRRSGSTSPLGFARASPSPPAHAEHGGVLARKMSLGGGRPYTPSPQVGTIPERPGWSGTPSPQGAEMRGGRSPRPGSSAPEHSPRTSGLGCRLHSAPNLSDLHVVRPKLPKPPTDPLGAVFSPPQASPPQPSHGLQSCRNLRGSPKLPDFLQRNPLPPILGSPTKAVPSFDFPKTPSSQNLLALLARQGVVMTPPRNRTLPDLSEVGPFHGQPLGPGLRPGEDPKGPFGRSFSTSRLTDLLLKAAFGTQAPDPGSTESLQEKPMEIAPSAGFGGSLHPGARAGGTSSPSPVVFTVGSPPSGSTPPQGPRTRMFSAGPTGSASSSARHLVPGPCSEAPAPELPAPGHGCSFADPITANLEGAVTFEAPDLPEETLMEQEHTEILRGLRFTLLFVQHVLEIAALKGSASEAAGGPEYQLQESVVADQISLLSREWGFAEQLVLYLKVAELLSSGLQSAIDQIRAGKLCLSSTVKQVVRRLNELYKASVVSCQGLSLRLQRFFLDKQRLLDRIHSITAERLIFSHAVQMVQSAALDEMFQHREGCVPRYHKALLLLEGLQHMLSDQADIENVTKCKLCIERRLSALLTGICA
Description: Next, we designed a chimeric compound composed of a BL-918 derivative (referred to as NZ-60 herein) as our autophagy activator linked to the TSPO ligand as our targeting warhead to the outer mitochondrial membrane, utilising Huisgen-Sharpless click chemistry for the key linkage step^38-41. We designed a chemical synthesis route in 9 steps to produce two ULKTACs, NZ-65 and NZ-66. NZ-65 employs a polyethylene glycol (PEG) linker while NZ-66 uses a six carbon hexane linker (FIG. 3A). The resulting molecules were >99% pure as verified by LCMS. […] Importantly, key interactions shown to be necessary for the activation of ULK1 in its kinase domain, namely, Arg18, Lys50, Asn86 and Tyr89^8, appear to be maintained.

[2] = tested on: LC3; experiment: ATP5a/LC3 co-localisation immunofluorescence in MEF WT; assay type: cell-based, mouse
Method: FIG. 6. ULKTACs rely on ULK1 for the redirection of autophagy components to mitochondria and subsequent mitophagic degradation (A) Western blot of mouse embryonic fibroblasts (MEF) WT and MEF ULK1/2^−/− treated with 1 mM ULKTACs, 5 mM CCCP or both and probed for ULK1, Mfn2 and Actin—quantification of the relative intensity of Mfn2 shown in (B), normalised to Actin. Representative immunofluorescence of MEF WT (C) and MEF ULK1/2^−/− (D) treated with 5 mM CCCP, 1 mM ULKTACs or both and immunostained for Alexa 488 ATP5a and Alexa 647 LC3B. Quantification of the colocalised LC3 to ATP5a spot area shown in WT vs ULK1/2^−/− treated MEF cells shown in (E). Data shown are mean±SEM, n=3, *p<0.05, ** p<0.01, *** p<0.001, Two-way ANOVA with Tukey's multiple comparisons test.
For TOM20/ULK1 immunofluorescence, cells were seeded in a 384 well PerkinElmer CellCarrier Ultra plate 24 hours prior to treatment with compounds. Cells were treated for 18 hours after which they were fixed with 4% paraformaldehyde (PFA) in phosphate buffered saline (PBS) and blocked with 10% FBS and 0.1% Triton in PBS. Plates were incubated at 4° C. overnight, with 1:400 mouse anti-TOM20 (Santa Cruz, #sc-17764) and 1:400 rabbit anti-ULK1 (Cell Signalling Technologies, #0854). […]

activation of ULK1 vs BL-918 [1]	SMILES	co-localisation of ATP5a with LC3 [2]
comparable activity	O=C(Nc1cc(C(F)(F)F)cc(C(F)(F)F)c1)N[C@@H](C(=O)Nc1ccc(F)cc1F)c1ccc(OCc2cn(CCCCCCNC(=O)C(=O)c3c(-c4ccccc4)[nH]c4ccccc34)nn2)cc1 [NZ-66, (R)-2-(3-(3,5-bis(trifluoromethyl)phenyl)ureido)-N-(2,4-difluorophenyl)-2-(4-((1-(6-(2-oxo-2-(2-phenyl-1H-indol-3-yl)acetamido)hexyl)-1H-1,2,3-triazol-4-yl)methoxy)phenyl) acetamide]	increase in co-localisation
comparable activity	O=C(Nc1cc(C(F)(F)F)cc(C(F)(F)F)c1)N[C@@H](C(=O)Nc1ccc(F)cc1F)c1ccc(OCc2cn(CCOCCOCCNC(=O)C(=O)c3c(-c4ccccc4)[nH]c4ccccc34)nn2)cc1 [NZ-65, (R)-2-(3-(3,5-bis(trifluoromethyl)phenyl)ureido)-N-(2,4-difluorophenyl)-2-(4-((1-(2-(2-(2-(2-oxo-2-(2-phenyl-1H-indol-3-yl)acetamido)ethoxy)ethoxy)ethyl)-1H-1,2,3-triazol-4-yl)methoxy)phenyl) acetamide]	increase in co-localisation
